From US20090042770A1, “Branched Chain Amino Acid Chelate” (priority 2007, published 2009)

Key:
[1] = pre-hydrolyzed BSA perfused into jejunum of human subjects (Reicht et al. 1997); cited from earlier work
[2] = Incorporation of leucine products into beverages / aqueous systems (dispersibility, separation, turbidity); type: physicochemical; settings: for ease of dispersion when incorporated into beverages: beverages / aqueous systems

Molecule	rate of absorption [1]	appearance in aqueous solution (separation, turbidity) [2]	ease of dispersion when incorporated into beverages [2]
N[C@@H](CSSC[C@H](N)C(=O)O)C(=O)O [cystine]	3%	–	–
CC(C)C[C@H](N)C(=O)O [free leucine, (S)-2-amino-4-methylpentanoic acid, reference compound]	–	separation phenomenon	difficult to disperse
calcium leucinate [chelated leucine product]	–	did not separate or increase turbidity	much more easily dispersed
